In the NIST ThermoML archive (doi:10.1021/acs.jced.7b01033):

How the values were obtained:
[1] = xn = mol fraction of the nth substance listed; settings: 100.5 kPa, Liquid, Vibrating tube method
[2] = 100.5 kPa, Liquid, Vibrating tube method

CCCCn1cc(C)[n+](C)c1.O=S(=O)([N-]S(=O)(=O)C(F)(F)F)C(F)(F)F + CCCC[n+]1cn(C)cc1C.O=S(=O)([N-]S(=O)(=O)C(F)(F)F)C(F)(F)F
[1], x1 = 0.637
Settings	mass density [kg/m3]
313.15 K	1391.1
323.15 K	1381
333.15 K	1372.3
343.15 K	1363.1
353.15 K	1353.9

CCc1n(C)c(C)c[n+]1CC.O=S(=O)([N-]S(=O)(=O)C(F)(F)F)C(F)(F)F + CCc1n(C)cc(C)[n+]1CC.O=S(=O)([N-]S(=O)(=O)C(F)(F)F)C(F)(F)F
[1], x1 = 0.735
Settings	mass density [kg/m3]
293.15 K	1431.7
303.15 K	1422
313.15 K	1412.6
323.15 K	1403.1
333.15 K	1393.8
343.15 K	1384.6
353.15 K	1375.3

CCCCCCn1cc(C)[n+](C)c1.O=S(=O)([N-]S(=O)(=O)C(F)(F)F)C(F)(F)F + CCCCCC[n+]1cn(C)cc1C.O=S(=O)([N-]S(=O)(=O)C(F)(F)F)C(F)(F)F
[1], x1 = 0.637
Settings	mass density [kg/m3]
293.15 K	1352.5
303.15 K	1343.3
313.15 K	1334.2
323.15 K	1325.2
333.15 K	1316.3
343.15 K	1307.4
353.15 K	1298.5

CC[n+]1cc(C)n(C)c1.O=S(=O)([N-]S(=O)(=O)C(F)(F)F)C(F)(F)F + CC[n+]1cn(C)cc1C.O=S(=O)([N-]S(=O)(=O)C(F)(F)F)C(F)(F)F
[1], x1 = 0.602
Settings	mass density [kg/m3]
293.15 K	1483.2
303.15 K	1473.3
313.15 K	1463.4
323.15 K	1453.6
333.15 K	1443.9
343.15 K	1434.2
353.15 K	1424.6

CCCCCCn1cc(C)[n+](C)c1CC.O=S(=O)([N-]S(=O)(=O)C(F)(F)F)C(F)(F)F + CCCCCC[n+]1c(C)cn(C)c1CC.O=S(=O)([N-]S(=O)(=O)C(F)(F)F)C(F)(F)F
[1], x1 = 0.813
Settings	mass density [kg/m3]
293.15 K	1325.2
303.15 K	1316.2
313.15 K	1307.3
323.15 K	1298.5
333.15 K	1289.7
343.15 K	1281
353.15 K	1272.3

CCCCn1cc(C)[n+](C)c1CC.O=S(=O)([N-]S(=O)(=O)C(F)(F)F)C(F)(F)F + CCCCn1c(C)c[n+](C)c1CC.O=S(=O)([N-]S(=O)(=O)C(F)(F)F)C(F)(F)F
[1], x1 = 0.806
Settings	mass density [kg/m3]
293.15 K	1371.2
303.15 K	1361.9
313.15 K	1352.8
323.15 K	1343.7
333.15 K	1334.7
343.15 K	1325.8
353.15 K	1316.9

CCCCCCn1cc[n+](C)c1C.O=S(=O)([N-]S(=O)(=O)C(F)(F)F)C(F)(F)F
[2]
Settings	mass density [kg/m3]
293.15 K	1362.2
303.15 K	1353.1
313.15 K	1344.1
323.15 K	1335.2
333.15 K	1326.3
343.15 K	1317.5
353.15 K	1308.7

CCn1cc[n+](C)c1C.O=S(=O)([N-]S(=O)(=O)C(F)(F)F)C(F)(F)F
[2]
Settings	mass density [kg/m3]
293.15 K	1496.4
303.15 K	1486.7
313.15 K	1476.9
323.15 K	1467.3
333.15 K	1457.7
343.15 K	1448.2
353.15 K	1438.8

CCCCn1cc[n+](C)c1C.O=S(=O)([N-]S(=O)(=O)C(F)(F)F)C(F)(F)F
[2]
Settings	mass density [kg/m3]
293.15 K	1424
303.15 K	1414.6
313.15 K	1405.3
323.15 K	1396
333.15 K	1386.9
343.15 K	1377.8
353.15 K	1368.7

CCC[n+]1ccn(C)c1C.O=S(=O)([N-]S(=O)(=O)C(F)(F)F)C(F)(F)F
[2]
Settings	mass density [kg/m3]
293.15 K	1460
303.15 K	1450.3
313.15 K	1440.7
323.15 K	1431.2
333.15 K	1421.7
343.15 K	1412.4
353.15 K	1403

CCCn1cc(C)[n+](C)c1.O=S(=O)([N-]S(=O)(=O)C(F)(F)F)C(F)(F)F + CCCn1c[n+](C)cc1C.O=S(=O)([N-]S(=O)(=O)C(F)(F)F)C(F)(F)F
[1], x1 = 0.629
Settings	mass density [kg/m3]
293.15 K	1445.4
303.15 K	1435.6
313.15 K	1425.9
323.15 K	1416.3
333.15 K	1406.9
343.15 K	1397.3
353.15 K	1387.9

CCC[n+]1cc(C)n(C)c1CC.O=S(=O)([N-]S(=O)(=O)C(F)(F)F)C(F)(F)F + CCC[n+]1c(C)cn(C)c1CC.O=S(=O)([N-]S(=O)(=O)C(F)(F)F)C(F)(F)F
[1], x1 = 0.763
Settings	mass density [kg/m3]
293.15 K	1401.2
303.15 K	1391.7
313.15 K	1382.3
323.15 K	1373
333.15 K	1363.8
343.15 K	1354.7
353.15 K	1345.5
